For assay [1], the system named is C9-48mer (DNA, G4) GGGGCCGGGGCCGGGGCCGGGGCCGGGGCCGGGGCCGGGGCCGGGGCC
Description: CD melting at 265 nm. Conditions: K+ 5 mM; 30 mM Tris-HCl pH 7.4; 1 µM DNA; Tm 90 °C at 1 equivalent, undetectable above 4 equivalents.

The subject of assay [2] is Dup I + II (DNA, duplex) GGGCATAGTGCGTGGCGTTTAGC/GCTAAACGCCACGCACTATGCCC
Description: CD and native PAGE. The settings on record: K+ 5 mM; 30 mM Tris-HCl pH 7.4; co-annealed; PAGE with 8 µM Fangchinoline, 2 µM each strand.

Assay [3] has as its system C9-24mer (DNA, G4) GGGGCCGGGGCCGGGGCCGGGGCC
Description: CD melting. The settings on record: K+ 5 mM; 30 mM Tris-HCl pH 7.4; 2 µM DNA, 8 µM compound (4 equivalents).

Assay [4] concerns FRET I + II (DNA, G4) GGGGCCGGGGCCGGGGCCGGGGCCAGAGGTAAAAGGATAATGGCCACGGTGCGGACGGC/GCCGTCCGCACCGTGGCCATTATCCTTTTACCTCT
Put plainly: FRET (Cy3/Cy5) and CD. The settings on record: K+ 100 mM; 30 mM Tris-HCl pH 7.4; 2 µM DNA, 8-24 µM compound; FRET efficiency falls to 0.46.

Assay [5] concerns C9-48mer (DNA, G4) GGGGCCGGGGCCGGGGCCGGGGCCGGGGCCGGGGCCGGGGCCGGGGCC
Description: CD titration at 265 nm, Hill fit. The settings on record: K+ 5 mM; 30 mM Tris-HCl pH 7.4; co-annealed; 1 µM DNA; per GQ unit; ligand induces parallel GQ; apparent.

Assay [6] concerns C9-RNA (RNA, G4) GGGGCCGGGGCCGGGGCCGGGGCC
Description: CD melting. The settings on record: K+ 5 mM; 30 mM Tris-HCl pH 7.4; 5 µM RNA, 2 equivalents (10 µM); Tm 76 to 93 °C.

In assay [7] the test system is C9-24mer G + C (C9-24mer with C9-24mer-C) (DNA, other) GGGGCCGGGGCCGGGGCCGGGGCC/GGCCCCGGCCCCGGCCCCGGCCCC
Description: CD and native PAGE. Conditions: K+ 5 mM; 30 mM Tris-HCl pH 7.4; co-annealed; PAGE with 8 µM Fangchinoline; parallel GQ induced.

Assay [8] has as its system C9-24mer (DNA, G4) GGGGCCGGGGCCGGGGCCGGGGCC
Description: CD titration at 265 nm, Hill fit. The settings on record: K+ 5 mM; 30 mM Tris-HCl pH 7.4; co-annealed; 2 µM DNA; per GQ unit; ligand induces parallel GQ; apparent.

Turning to `COc1ccc2cc1Oc1ccc(cc1)C[C@H]1c3cc(c(OC)cc3CCN1C)Oc1c(O)c(OC)cc3c1[C@H](C2)N(C)CC3`, the binding entry in assay [1] is “yes”; in assay [2], “no”; in assay [4], “yes”; in assay [7], “yes”. Besides, the values for the ΔTm in assay [3] and in assay [6] were 6 °C and 17 °C, respectively. Besides, the figures for the Kb result in assay [5] and in assay [8] were “(6.6 ± 0.2) × 10^5 M^-1” and “(4.0 ± 0.3) × 10^5 M^-1”, respectively.

The values are drawn from article PMC10300829 (2023).
